Test results reported in article PMC10097024, “Cytotoxic and Antibacterial Prenylated Acylphloroglucinols from Hypericum olympicum L” (Plants, 2023).
Where two headings read alike, the source gives them in different places.

Tests used:
[1] = tested on: EA.hy926; experiment: MTT cytotoxicity test; format: cell-based, human
Source text: (§1) The group of human cell lines used in this study were represented by the tumor cell lines MDA-MB (breast carcinoma), EJ (urinary bladder carcinoma), K-562 (chronic myeloid leukemia), HL-60 (acute pre-myeloid leukemia), HL-60/DOX (multi-drug resistant HL-60 cell line, with over expression of MRP-1) and the non-tumorigenic cell lines HEK-293 (embryonic kidney cells) and EA.hy926 (vascular endothelial cells). EJ, HL60 and EA.hy926 were purchased from American Type Culture Collection (ATCC) (Manassas, Virginia). The other cell lines were purchased from the German Collection of Microorganisms and Cell Cultures (DSMZ GmbH, Braunschweig, Germany). HL-60/DOX cell lines were generated by periodically treating HL-60 cells with anthracyclins. The conditions in which the cell culture flasks were maintained were as follows: 37 °C in an incubator “BB 16-Function Line” Heraeus (Kendro, Hanau, Germany) with 5% CO2 humidified atmosphere. The growth medium was 90% RPMI-1640, supplemented with 10% FBS and 2 mM L-glutamine. MDA-MB-231, EJ, HEK-293 and EA.hy926 cells were maintained as adherent monolayer cultures while all the other (leukemic) cell lines were grown as suspension type cultures. Cells were maintained in log phase: the adherent cell lines were subjected to trypsinization 1–2 times a week and the leukemic cell lines were passaged 2–3 times a week by removing of part of the cellular suspension and substituting it with fresh medium.
(§2) The evaluation of cytotoxic activity was conducted by MTT test as described previously. The median inhibitory concentration (IC50) values which represent the half-maximal concentration values were calculated from sigmoidal concentration–response curves, using non-linear regression analysis (Curve fit, GraphPad Prizm 5.0 software, GraphPad Software Inc., San Diego, CA, USA). The selectivity index was calculated as the ratio of the IC50 of a non-cancerous line (HEK-293 or EA.hy926) and the average IC50 of all chemosensitive tested tumor cell lines (x). Therefore, SI=IC50HEK-293/IC50x . The resistance index (RI) was calculated as the ratio of IC50 of the multi-drug resistant HL-60/DOX cell line and the IC50 of its parent cell line: RI=IC50HL-60/DOX/IC50HL-60 .

[2] = tested on: EJ; experiment: MTT cytotoxicity test; format: cell-based, human; conditions: 72 h exposure
Source text: as §1, §2

[3] = tested on: HEK-293; experiment: MTT cytotoxicity test; format: cell-based, human
Source text: as §1, §2

[4] = tested on: HL-60/DOX; experiment: MTT cytotoxicity test; format: cell-based, human; conditions: 72 h exposure
Source text: as §1, §2

[5] = tested on: HL-60; experiment: MTT cytotoxicity test; format: cell-based, human; conditions: HL-60, 72 h exposure
Source text: as §1, §2

[6] = tested on: K-562; experiment: MTT cytotoxicity test; format: cell-based, human
Source text: as §1, §2

[7] = tested on: MDA-MB-231; experiment: MTT cytotoxicity test; format: cell-based, human; conditions: MDA-MB-231, 72 h exposure
Source text: as §1, §2

[8] = tested on: human tumor (MDA-MB-231, EJ, K-562, HL-60 and HL-60/DOX) cell lines; experiment: MTT cytotoxicity test, tumor cell line panel; format: cell-based
Source text: as §1, §2

[9] = tested on: HL-60; experiment: Antiproliferative test (NCI methodology); format: cell-based, human; conditions: for TGI: HL-60, total growth inhibition; for GI50: HL-60, MTT readout
Source text: as §1
(§3) The test was performed according the methodology of National Cancer Institute (NCI), USA [116]. Briefly, cells were seeded into 96-well plates in the same way as for an MTT test and after 24 h, the absorption of one plate of each cell line was measured as in the MTT assay described above, to represent a measurement of the cell population at the time of drug-addition (Tz). The rest of the plates were treated with the tested compounds and the experiment for them continued as the MTT-method. Using the absorbance measurements [(Tz, untreated control growth (C) and test growth in the present of the compounds (Ti)], the percentage growth is calculated at each of the tested concentrations of the compounds. Percentage growth inhibition (GI) is calculated as GI%=Ti−Tz/C−Tz×100 for concentrations for which Ti ≥ Tz. For concentrations in which Ti < Tz it is calculated as GI%=Ti−Tz/Tz×100 . Two dose parameters are calculated for each experimental agent. Growth inhibition of 50% (GI50) is calculated from Ti−Tz/C−Tz×100=50 . This is the drug concentration resulting in a 50% reduction in the net protein increase (as measured by MTT-test) in control cells during the drug incubation. The drug concentration resulting in total growth inhibition (TGI) is calculated from Ti = Tz.

[10] = tested on: K-562; experiment: Antiproliferative test (NCI methodology); format: cell-based, human; conditions: for GI50: K-562, MTT readout; for TGI: K-562, total growth inhibition
Source text: as §1, §3

[11] = tested on: MDA-MB-231; experiment: Antiproliferative test (NCI methodology); format: cell-based, human; conditions: for GI50: MDA-MB-231, MTT readout; for TGI: MDA-MB-231, total growth inhibition
Source text: as §1, §3

[12] = Homo sapiens, EA.hy 926, EA.hy926, 72 h exposure
[13] = Homo sapiens, HEK293, HEK-293, 72 h exposure
[14] = Homo sapiens, K562, K-562, 72 h exposure
[15] = Homo sapiens, average IC50 of all chemo-sensitive tested tumor cell lines, read-out: x

Compound | IC50 [1, 12] [µM] | IC50 ([2]; Homo sapiens) [µM] | IC50 [3, 13] [µM] | IC50 ([4]; Homo sapiens) [nM] | IC50 ([5]; Homo sapiens) [µM] | IC50 [6, 14] [µM] | IC50 ([7]; Homo sapiens) [nM] | IC50 [8, 15] [µM] | TGI [9] [µM] | TGI [10] [µM] | TGI [11] [µM] | other results
CC(C)=CCC[C@]1(C)[C@@H](CC=C(C)C)C[C@]2(C)C(=O)C(CC=C(C)C)=C(O)[C@@]1(C(=O)C(C)C)C2=O [Compound 3, hyperpolyphyllirin/hyperibine J] | 19.9 ± 3.1 | 8.02 ± 1.6 | 10.7 ± 2.1 | 1280 ± 200 | 10.9 ± 1.9 | 3.17 ± 0.3 | 2630 ± 300 | 6.18 | 47.43 | 0.77 | 2.96 | GI50 ([9]; Homo sapiens): 41.1 µM; GI50 ([10]; Homo sapiens, K562): 0.44 µM; GI50 ([11]; Homo sapiens): 1930 nM
(1R,5R,7S,8R)-4-hydroxy-5,8-dimethyl-3,7-bis(3-methylbut-2-en-1-yl)-1-(2-methylbutanoyl)-8-(4-methylpent-3-en-1-yl)bicyclo[3.3.1]non-3-ene-2,9-dione [Compound 4] |  |  |  |  |  |  |  |  | 55.55 | 18.38 | 0.81 | IC50 ([1]; EA.hy926, 72 h exposure): 5.34 ± 1.9 µM; IC50 [2]: 8.06 ± 1.7 µM; IC50 ([3]; HEK-293, 72 h exposure): 35.8 ± 4.4 µM; IC50 [4]: 12200 ± 3200 nM; IC50 [5]: 22.2 ± 3.4 µM; IC50 ([6]; K-562, 72 h exposure): 17.2 ± 3 µM; IC50 [7]: 12500 ± 2100 nM; IC50 ([8]; average IC50 of all chemo-sensitive tested tumor cell lines, read-out: x): 15 µM; GI50 [9]: 41.1 µM; GI50 [10]: 16 µM; GI50 [11]: 520 nM
CC(C)=CCC[C@]1(C)[C@@H](CC=C(C)C)C[C@H]2C(=O)[C@]1(C(=O)C(C)C)C(=O)C(CC=C(C)C)=C2O [Compound 5, (1S,5R,7S,8R)-4-hydroxy-1-isobutyryl-8-methyl-3,7-bis(3-methylbut-2-en-1-yl)-8-(4-methylpent-3-en-1-yl)bicyclo[3.3.1]non-3-ene-2,9-dione] | 9.43 ± 2 | 1.21 ± 0.3 | 0.89 ± 0.1 | 1710 ± 200 | 1.16 ± 0.1 | 1.58 ± 0.1 | 1310 ± 200 | 1.32 |  |  |  | IC50 ([8]; Homo sapiens, tumor cell lines, MTT assay, read-out: IC50 (range over the tumor cell lines)): 1.16 to 1.71 µM
